Measurements reported in patent publication US9861575B2, “Vitamin-containing nutrition infusion for administration through peripheral vein” (AJINOMOTO CO., INC., priority 2010, dated 2018).
Where a name gives a salt, the structure may show the parent alone.

Tests used:
[1] = Test Example 7: stability of mixed solution of Example 11; type: physicochemical; settings: mixed solution of Example 11, room temperature, light-shielded; value immediately after mixing = 100%
Procedure: Regarding the infusion formulations prepared in Example 11, the partition portions were opened to thoroughly mix the sugar solution with the amino acid solution at room temperature, and then the mixed solution was sampled after 0 hours, 24 hours, and 48 hours to measure the content of the respective vitamins and N-acetyl cysteine. In addition, the mixed solution was stored in a light-shielded environment. The value measured immediately after mixing was taken as 100%, and the content at each point in time of measurement is expressed as a percentage. All of the respective components remained stable until 48 hours elapsed after mixing.

[2] = Test Example 6: stability of respective vitamins on storage of infusion formulation of Example 11; type: physicochemical; settings: in infusion formulation of Example 11, percentage based on the mixed amount; for residual rate (content), storage for 1 month / residual rate (content), storage for 3 months: 40° C. and 75% RH
Excerpt: In addition, the content is expressed as a percentage based on the mixed amount. From the results, it is considered that the infusion formulation of the present invention remains stable even when stored for a long time.

Compound | content after 24 hours [1] [%] | content after 48 hours [1] [%] | residual rate (content), storage for 1 month [2] [%] | residual rate (content), storage for 3 months [2] [%] | residual rate (content) immediately after sterilization [2] [%]
Nc1nc2ncc(CNc3ccc(C(=O)N[C@@H](CCC(=O)O)C(=O)O)cc3)nc2c(=O)[nH]1 [Folic acid] | 96.4 | 96.2 | 96.5 | 89.7 | 95.8
O=C(O)CCCC[C@@H]1SC[C@@H]2NC(=O)N[C@@H]21 [Biotin] | 97.9 | 96.7 |  | 91.4 | 93.6
Cc1ncc(CO)c(CO)c1O.Cl [Vitamin B6, Pyridoxine hydrochloride] | 100.6 | 99.9 | 96.7 | 97.3 | 97.1
CC(C)(CO)[C@@H](O)C(=O)NCCCO [Panthenol] | 100.0 | 100.2 | 97.6 | 96.8 | 97.8
CC(=O)N[C@@H](CS)C(=O)O [N-acetyl cysteine] | 98.3 | 97.5 |  |  | 
NC(=O)c1cccnc1 [Nicotinamide] | 96.6 | 97.2 | 101.5 | 99.6 | 100.9
O=C1O[C@H]([C@@H](O)CO)C(O)=C1O [Vitamin C, Ascorbic acid] | 97.1 | 92.2 | 97.6 | 99.7 | 96.1

Results, then the compound that gave them:

content after 24 hours [1] [%] | content after 48 hours [1] [%] | residual rate (content), storage for 1 month [2] [%] | residual rate (content), storage for 3 months [2] [%] | residual rate (content) immediately after sterilization [2] [%] | Compound
96.0 | 97.9 | 89.7 | 91.2 | 86.3 | Cyanocobalamin [Vitamin B12]
99.4 | 94.1 | 90.6 | 83.5 | 93.3 | Cc1ncc(C[n+]2csc(CCO)c2C)c(N)n1 [Vitamin B1, Thiamine hydrochloride]
 | 99.8 | 94.3 | 92.6 | 94.7 | Cc1cc2nc3c(=O)[nH]c(=O)nc-3n(C[C@H](O)[C@H](O)[C@H](O)COP(=O)([O-])O)c2cc1C.[Na+] [Vitamin B2, Riboflavin sodium phosphate]
